Data reported in PubChem BioAssay AID1259407 (Chemical Carcinogenesis Research Information System (CCRIS), 2018).
The source made the active and inactive calls. No rule for the calls is given here.

System: CCRIS mutagenicity, Ames/micronucleus/aberration tests
Assay: CCRIS mutagenicity studies

O=NN1CCCCC1
mutagenic call (Test System: AMES SALMONELLA TYPHIMURIUM, Strain/Indicator: TA98, Metabolic Activation: HAMSTER, LIVER, S-9, AROCLOR 1254 (10%), Method: PREINCUBATION): active; positive
mutagenic call (Test System: AMES SALMONELLA TYPHIMURIUM, Strain/Indicator: TA98, Metabolic Activation: HAMSTER, LIVER, S-9, AROCLOR 1254 (10%), Method: STANDARD PLATE): active; positive
mutagenic call (Test System: AMES SALMONELLA TYPHIMURIUM, Strain/Indicator: TA98, Metabolic Activation: HAMSTER, LIVER, S-9, AROCLOR 1254, Method: PREINCUBATION): active; positive
mutagenic call (Test System: AMES SALMONELLA TYPHIMURIUM, Strain/Indicator: TA98, Metabolic Activation: HAMSTER, LIVER, S-9, AROCLOR 1254, Method: STANDARD PLATE): active; positive
mutagenic call (Test System: AMES SALMONELLA TYPHIMURIUM, Strain/Indicator: TA98, Metabolic Activation: NONE, Method: PREINCUBATION): inactive; negative
mutagenic call (Test System: AMES SALMONELLA TYPHIMURIUM, Strain/Indicator: TA98, Metabolic Activation: NONE, Method: STANDARD PLATE): inactive; negative
mutagenic call (Test System: AMES SALMONELLA TYPHIMURIUM, Strain/Indicator: TA98, Metabolic Activation: RAT, LIVER, S-9, AROCLOR 1254 (10%), Method: PREINCUBATION): inactive; negative
mutagenic call (Test System: AMES SALMONELLA TYPHIMURIUM, Strain/Indicator: TA98, Metabolic Activation: RAT, LIVER, S-9, AROCLOR 1254 (10%), Method: STANDARD PLATE): inactive; negative
mutagenic call (Test System: AMES SALMONELLA TYPHIMURIUM, Strain/Indicator: TA98, Metabolic Activation: RAT, LIVER, S-9, AROCLOR 1254, Method: PREINCUBATION): inactive; negative
mutagenic call (Test System: AMES SALMONELLA TYPHIMURIUM, Strain/Indicator: TA98, Metabolic Activation: RAT, LIVER, S-9, AROCLOR 1254, Method: STANDARD PLATE): inactive; negative
mutagenic call (Test System: AMES SALMONELLA TYPHIMURIUM, Strain/Indicator: TA100, Metabolic Activation: HAMSTER, LIVER, S-9, AROCLOR 1254 (10%), Method: PREINCUBATION): active; positive
mutagenic call (Test System: AMES SALMONELLA TYPHIMURIUM, Strain/Indicator: TA100, Metabolic Activation: HAMSTER, LIVER, S-9, AROCLOR 1254 (10%), Method: STANDARD PLATE): active; positive
mutagenic call (Test System: AMES SALMONELLA TYPHIMURIUM, Strain/Indicator: TA100, Metabolic Activation: HAMSTER, LIVER, S-9, AROCLOR 1254, Method: PREINCUBATION): active; positive
mutagenic call (Test System: AMES SALMONELLA TYPHIMURIUM, Strain/Indicator: TA100, Metabolic Activation: HAMSTER, LIVER, S-9, Method: PREINCUBATION): active; positive
mutagenic call (Test System: AMES SALMONELLA TYPHIMURIUM, Strain/Indicator: TA100, Metabolic Activation: HUMAN, LIVER, S-9, Method: PREINCUBATION): active; positive
mutagenic call (Test System: AMES SALMONELLA TYPHIMURIUM, Strain/Indicator: TA100, Metabolic Activation: MOUSE, LIVER, S-9, Method: PREINCUBATION): active; positive
mutagenic call (Test System: AMES SALMONELLA TYPHIMURIUM, Strain/Indicator: TA100, Metabolic Activation: NONE, Method: PREINCUBATION): inactive; negative
mutagenic call (Test System: AMES SALMONELLA TYPHIMURIUM, Strain/Indicator: TA100, Metabolic Activation: NONE, Method: STANDARD PLATE): inactive; negative
mutagenic call (Test System: AMES SALMONELLA TYPHIMURIUM, Strain/Indicator: TA100, Metabolic Activation: RABBIT, LIVER, S-9, Method: STANDARD PLATE): inactive; negative
mutagenic call (Test System: AMES SALMONELLA TYPHIMURIUM, Strain/Indicator: TA100, Metabolic Activation: RABBIT, LUNG, S-9, Method: STANDARD PLATE): active; positive
mutagenic call (Test System: AMES SALMONELLA TYPHIMURIUM, Strain/Indicator: TA100, Metabolic Activation: RABBIT, NASAL, S-9, Method: STANDARD PLATE): inactive; negative
mutagenic call (Test System: AMES SALMONELLA TYPHIMURIUM, Strain/Indicator: TA100, Metabolic Activation: RAT, LIVER, S-9, AROCLOR 1254 (10%), Method: PREINCUBATION): active; positive
mutagenic call (Test System: AMES SALMONELLA TYPHIMURIUM, Strain/Indicator: TA100, Metabolic Activation: RAT, LIVER, S-9, AROCLOR 1254 (10%), Method: STANDARD PLATE): inactive; negative
mutagenic call (Test System: AMES SALMONELLA TYPHIMURIUM, Strain/Indicator: TA100, Metabolic Activation: RAT, LIVER, S-9, AROCLOR 1254, Method: PREINCUBATION): active; positive
mutagenic call (Test System: AMES SALMONELLA TYPHIMURIUM, Strain/Indicator: TA100, Metabolic Activation: RAT, LIVER, S-9, AROCLOR 1254, Method: STANDARD PLATE): inactive; negative
mutagenic call (Test System: AMES SALMONELLA TYPHIMURIUM, Strain/Indicator: TA100, Metabolic Activation: RAT, LUNG, S-9, Method: STANDARD PLATE): inactive; negative
mutagenic call (Test System: AMES SALMONELLA TYPHIMURIUM, Strain/Indicator: TA100, Metabolic Activation: RAT, NASAL, S-9, Method: STANDARD PLATE): active; positive
mutagenic call (Test System: AMES SALMONELLA TYPHIMURIUM, Strain/Indicator: TA100, Metabolic Activation: TOBACCO CELLS, Method: PREINCUBATION): inactive; negative
mutagenic call (Test System: AMES SALMONELLA TYPHIMURIUM, Strain/Indicator: TA104, Metabolic Activation: RAT, LIVER, S-9, AROCLOR 1254, Method: PREINCUBATION): active; positive
mutagenic call (Test System: AMES SALMONELLA TYPHIMURIUM, Strain/Indicator: TA1530, Metabolic Activation: RAT LIVER, CYTOSOL, ISONIAZID, Method: PREINCUBATION): inactive; negative
mutagenic call (Test System: AMES SALMONELLA TYPHIMURIUM, Strain/Indicator: TA1530, Metabolic Activation: RAT LIVER, MICROSOMES, ISONIAZID, Method: PREINCUBATION): active; positive
mutagenic call (Test System: AMES SALMONELLA TYPHIMURIUM, Strain/Indicator: TA1530, Metabolic Activation: RAT, LIVER, S-9, Method: STANDARD PLATE): active; positive
mutagenic call (Test System: AMES SALMONELLA TYPHIMURIUM, Strain/Indicator: TA1535, Metabolic Activation: HAMSTER, LIVER, S-9, AROCLOR 1254 (10%), Method: PREINCUBATION): active; positive
mutagenic call (Test System: AMES SALMONELLA TYPHIMURIUM, Strain/Indicator: TA1535, Metabolic Activation: HAMSTER, LIVER, S-9, AROCLOR 1254, Method: PREINCUBATION): active; positive
mutagenic call (Test System: AMES SALMONELLA TYPHIMURIUM, Strain/Indicator: TA1535, Metabolic Activation: NONE, Method: PREINCUBATION): inactive; negative
mutagenic call (Test System: AMES SALMONELLA TYPHIMURIUM, Strain/Indicator: TA1535, Metabolic Activation: RAT, LIVER, S-9, AROCLOR 1254 (10%), Method: PREINCUBATION): active; positive
mutagenic call (Test System: AMES SALMONELLA TYPHIMURIUM, Strain/Indicator: TA1535, Metabolic Activation: RAT, LIVER, S-9, AROCLOR 1254, Method: PREINCUBATION): active; positive
mutagenic call (Test System: AMES SALMONELLA TYPHIMURIUM, Strain/Indicator: TA1535, Metabolic Activation: RAT, LIVER, S-9, Method: STANDARD PLATE): active; positive
mutagenic call (Test System: AMES SALMONELLA TYPHIMURIUM, Strain/Indicator: TA1537, Metabolic Activation: HAMSTER, LIVER, S-9, AROCLOR 1254 (10%), Method: PREINCUBATION): inactive; negative
mutagenic call (Test System: AMES SALMONELLA TYPHIMURIUM, Strain/Indicator: TA1537, Metabolic Activation: HAMSTER, LIVER, S-9, AROCLOR 1254, Method: PREINCUBATION): inactive; negative
mutagenic call (Test System: AMES SALMONELLA TYPHIMURIUM, Strain/Indicator: TA1537, Metabolic Activation: NONE, Method: PREINCUBATION): inactive; negative
mutagenic call (Test System: AMES SALMONELLA TYPHIMURIUM, Strain/Indicator: TA1537, Metabolic Activation: RAT, LIVER, S-9, AROCLOR 1254 (10%), Method: PREINCUBATION): inactive; negative
mutagenic call (Test System: AMES SALMONELLA TYPHIMURIUM, Strain/Indicator: TA1537, Metabolic Activation: RAT, LIVER, S-9, AROCLOR 1254, Method: PREINCUBATION): inactive; negative
mutagenic call (Test System: AMES SALMONELLA TYPHIMURIUM, Strain/Indicator: TA1538, Metabolic Activation: HAMSTER, LIVER, S-9, AROCLOR 1254 (10%), Method: PREINCUBATION): inactive; negative
mutagenic call (Test System: AMES SALMONELLA TYPHIMURIUM, Strain/Indicator: TA1538, Metabolic Activation: HAMSTER, LIVER, S-9, AROCLOR 1254, Method: PREINCUBATION): inactive; negative
mutagenic call (Test System: AMES SALMONELLA TYPHIMURIUM, Strain/Indicator: TA1538, Metabolic Activation: NONE, Method: PREINCUBATION): inactive; negative
mutagenic call (Test System: AMES SALMONELLA TYPHIMURIUM, Strain/Indicator: TA1538, Metabolic Activation: RAT, LIVER, S-9, AROCLOR 1254 (10%), Method: PREINCUBATION): inactive; negative
mutagenic call (Test System: AMES SALMONELLA TYPHIMURIUM, Strain/Indicator: TA1538, Metabolic Activation: RAT, LIVER, S-9, AROCLOR 1254, Method: PREINCUBATION): inactive; negative
mutagenic call (Test System: AMES SALMONELLA TYPHIMURIUM, Strain/Indicator: TA1975, Metabolic Activation: RAT, LIVER, S-9, AROCLOR 1254, Method: PREINCUBATION): active; positive
mutagenic call (Test System: UDS RODENT CELLS, Strain/Indicator: THY INCORP (NON-S-PHASE), Metabolic Activation: NONE, Method: LIQUID SCINTILLATION COUNTING): inactive; negative
mutagenic call (Test System: UDS RODENT CELLS, Strain/Indicator: THY INCORP (NON-S-PHASE), Metabolic Activation: RAT, LIVER, S-9, SODIUM PHENOBARBITAL, Method: LIQUID SCINTILLATION COUNTING): active; positive
